Patent US10533029B1, “Anticancer trans-diaminoplatinum(II) complexes of selenones” (KING FAHD UNIVERSITY OF PETROLEUM AND MINERALS, priority 2018, dated 2020)

Key:
[1] = tested on: human breast cancer MDA-231 cells; assay: MTT in vitro cytotoxicity, MDA-231; format: cell-based; settings: for cytotoxicity compared to cisplatin: MDA-231 (MDA-321 [sic]), MTT; for IC50: MDA-231, MTT, 72 h incubation, read-out: IC50 values against MDA-231
Protocol: (§1) Solutions of Pt(II) complexes of selenone 1-7 and cisplatin at concentrations of 1.0 μM, 5.0 μM, 10.0 μM, 25.0 μM, and 50.0 μM were prepared in Dulbecco modified eagle medium (DMEM). The human cervical cancer cell line HeLa and human breast cancer cell line MDA-231 were seeded and maintained in quadruplicate in a 96-well tissue culture plate at 5×10^4 cells per well in 200 μL of the same medium. The cancer cells were incubated for 24 hours before treatment. All compounds were dissolved in 50% DMSO. Therefore DMSO was used as a negative control. The final DMSO concentration, in each well, was less than 0.1%. The cancer cells were treated with platinum complexes of compounds 1-7 and cisplatin, and the resulting cultures were incubated for 72 h. The medium of wells was discarded and 100 μL DMEM containing (5 mg/mL) MTT (3-(4,5-dimethylthiazol-2-yl)-2,5-diphenyltetrazolium bromide) was added to each well and the cultures incubated in a CO2 incubator at 37° C. in the dark for 4 hrs. After incubation, a purple colored formazan (artificial chromogenic dye, a product of the reduction of water […] tetrazolium salts e.g., MTT by dehydrogenases and reductases) in the cells is produced and appeared as dark crystals in the bottom of the wells. The medium of culture was discarded from each well carefully to avoid disruption of the monolayer. Isopropanol (100 μL) was added in each well. The solution was thoroughly mixed in the wells to dissolve the formazan crystals which results in a purple solution. The absorbance of the 96-well plate was measured at 570 nm with Mithras 2LB943 multimode microplate reader against reagent blank.
(§2) In vitro cytotoxicity of the platinum complexes of compounds 1-7 and cisplatin it DMSO were evaluated by the MTT assay against two human cancer cells namely, human cervical cancer HeLa cells and human breast cancer MDA-231 cells. The results of cytotoxicity are expressed, in terms of IC50 and listed m Table 7. The survival of the cells as a function of concentration of the platinum complexes of compounds 1-7 are graphically presented in FIGS. 4A and 4B. […] Recently, the anticancer properties of some other platinum(II) complexes of heterocyclic selenones have been reported [Altoum et al J. Coord. Chem. 70 (2017) 1020-1031; and. Altoum et al. Polyhedron, 128, 2-8 (2017), 42].

[2] = tested on: human cervical cancer HeLa cells; assay: MTT in vitro cytotoxicity, HeLa; format: cell-based; settings: for cytotoxicity compared to cisplatin: HeLa cells; for IC50: HeLa, 72 h incubation, read-out: IC50 values against HeLa
Protocol: as §1, §2

[3] = tested on: MCF7 cell line; assay: MTT in vitro cytotoxicity, cell line MCF7; format: cell-based, human
[4] = tested on: MCF7 cells; settings: read-out: IC50, in vitro cytotoxicity against MCF7 cells, Mustafa (2015) and (2014); cited from earlier work

## N.N.NC(N)=[Se].NC(N)=[Se].O=[N+]([O-])[O-].O=[N+]([O-])[O-].[Pt+2] [Complex 1, [Pt(NH3)2(Seu)2](NO3)2]
[1]
  cytotoxicity compared to cisplatin: enhanced cytotoxicity
  IC50: 4.3 µM
[2]
  cytotoxicity compared to cisplatin: enhanced cytotoxicity
  IC50: 3.1 µM

## CNC(=[Se])NC.CNC(=[Se])NC.N.N.O=[N+]([O-])[O-].O=[N+]([O-])[O-].[Pt+2] [Complex 2, [Pt(NH3)2(Me2Seu)2](NO3)2]
[1]
  IC50: 7.4 µM
[2]
  cytotoxicity compared to cisplatin: more cytotoxic than cisplatin
  IC50: 2.3 µM
[3]
  cytotoxicity compared to cisplatin: less active

## N.N.O=[N+]([O-])[O-].O=[N+]([O-])[O-].[Pt+2].[Se]=C1NCCN1.[Se]=C1NCCN1 [Complex 3, [Pt(NH3)2(ImSe)2](NO3)2]
[1]
  IC50: 9.5 µM
[2]
  cytotoxicity compared to cisplatin: comparable cytotoxicity
  IC50: 3.7 µM
[3]
  cytotoxicity compared to cisplatin: less active

## CCN1CCNC1=[Se].CCN1CCNC1=[Se].N.N.O=[N+]([O-])[O-].O=[N+]([O-])[O-].[Pt+2] [Complex 4, [Pt(NH3)2(EtImSe)2](NO3)2]
[1]
  cytotoxicity compared to cisplatin: enhanced cytotoxicity
  IC50: 4.4 µM
[2]
  cytotoxicity compared to cisplatin: enhanced cytotoxicity
  IC50: 2.1 µM

## CCCN1CCNC1=[Se].CCCN1CCNC1=[Se].N.N.O=[N+]([O-])[O-].O=[N+]([O-])[O-].[Pt+2] [Complex 5, trans-[Pt(NH3)2(PrImSe)2](NO3)2]
[1]
  IC50: 4.7 µM
[2]
  IC50: 6.9 µM
[3]
  cytotoxicity compared to cisplatin: greater cytotoxicity than cisplatin

## CC(C)N1CCNC1=[Se].CC(C)N1CCNC1=[Se].N.N.O=[N+]([O-])[O-].O=[N+]([O-])[O-].[Pt+2] [Complex 6]
[1]
  cytotoxicity compared to cisplatin: enhanced cytotoxicity
  IC50: 5.7 µM
[2]
  cytotoxicity compared to cisplatin: enhanced cytotoxicity
  IC50: 3.1 µM

## N.N.O=[N+]([O-])[O-].O=[N+]([O-])[O-].[Pt+2].[Se]=C1NCCCCN1.[Se]=C1NCCCCN1 [Complex 7, [Pt(NH3)2(DiapSe)2](NO3)2]
[1]
  IC50: 5.3 µM
[2]
  IC50: 5.4 µM

## S=C1NCCCN1.S=C1NCCCN1.S=C1NCCCN1.S=C1NCCCN1.[Cl-].[Cl-].[Pt+2] [[Pt(Diaz)4]Cl2]
[4]
  IC50: 19.1 µM

## CCN1CCNC1=S.CCN1CCNC1=S.CCN1CCNC1=S.CCN1CCNC1=S.[Cl-].[Cl-].[Pt+2] [[Pt(EtImt)4]Cl2]
[4]
  IC50: 11 µM

## cis-(Pt(NH3)2Cl2) [Cisplatin, reference compound]
[1]
  IC50: 6.3 µM
[2]
  IC50: 3.6 µM
